The results in this text go back to patent US11492335B2, “Aryl or heteroaryl triazolone derivatives or salts thereof, or pharmaceutical compositions comprising the same” (YUHAN CORPORATION, priority 2018, dated 2022).

Structures can show the parent of a compound that is named as a salt. Where two headings read alike, the source gives them in different places. Where only a bound is given, the exact number is not on record here.

One assay addresses T1, recombinant human VAP-1 (Homo sapiens, UniProt Q16853).
T1 construct: purchased R&D systems
T1 sequence (Q16853 1-763): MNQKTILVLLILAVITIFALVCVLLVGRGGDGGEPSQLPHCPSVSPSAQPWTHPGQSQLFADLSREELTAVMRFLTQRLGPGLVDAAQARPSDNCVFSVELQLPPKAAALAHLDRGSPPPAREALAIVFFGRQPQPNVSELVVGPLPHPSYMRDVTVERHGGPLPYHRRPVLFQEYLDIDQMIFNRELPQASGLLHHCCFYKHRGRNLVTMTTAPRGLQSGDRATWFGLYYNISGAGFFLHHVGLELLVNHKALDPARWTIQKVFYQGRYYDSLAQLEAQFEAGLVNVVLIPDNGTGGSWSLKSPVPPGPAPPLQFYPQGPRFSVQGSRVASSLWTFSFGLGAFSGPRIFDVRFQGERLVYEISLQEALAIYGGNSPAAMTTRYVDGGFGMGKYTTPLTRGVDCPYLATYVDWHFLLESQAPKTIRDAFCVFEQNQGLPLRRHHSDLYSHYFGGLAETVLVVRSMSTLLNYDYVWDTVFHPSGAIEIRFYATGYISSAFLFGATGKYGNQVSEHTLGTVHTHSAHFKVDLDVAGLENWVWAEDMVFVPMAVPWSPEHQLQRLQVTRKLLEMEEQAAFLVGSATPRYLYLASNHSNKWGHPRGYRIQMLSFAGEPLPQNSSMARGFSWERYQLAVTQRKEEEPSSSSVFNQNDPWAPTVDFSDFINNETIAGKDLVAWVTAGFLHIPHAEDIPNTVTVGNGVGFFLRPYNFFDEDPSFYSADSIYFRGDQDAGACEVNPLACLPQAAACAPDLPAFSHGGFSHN
Kind of assay: Activity on recombinant human VAP-1, Amplex Red HRP-coupled hydrogen peroxide assay, benzylamine substrate. The assay is classed as biochemical. Conditions: recombinant human VAP-1, benzylamine substrate, read-out: Inhibitory Activity (IC50, nM) human VAP-1. As to the method:
(§1) The compounds according to the present technology were evaluated in terms of activity on recombinant human VAP-1 (R&D systems) by measuring the level of hydrogen peroxide in horseradish peroxidase (HRP)-coupled reaction using Amplex Red Hydrogen Peroxide Assay Kit (Molecular Probes, Invitrogen, USA). The experiment was carried out at room temperature using benzylamine as a substrate. In the HRP-coupled reaction, hydrogen peroxide oxidation of 10-acetyl-3,7-dihydroxyphenoxazine (Amplex Red reagent) produces resorufin, which is a highly fluorescent compound. Briefly, the test compound was dissolved in dimethyl sulfoxide (DMSO) at a concentration of 20 mM. The dose-response assessment was made by 1:3 serial dilution in DMSO, thereby creating an 8 point curve. The concentration of the upper part was controlled according to the efficacy of the compounds, followed by dilution with a reaction buffer solution to obtain a final DMSO concentration less than 1%. To each well of a 96 black well plate, human VAP-1 purified in 50 mM sodium phosphate buffer solution (pH7.4) was added. The test compounds dissolved in DMSO were incubated with the human VAP-1 enzymes at 37° C. for 30 minutes. After 30-minute incubation, each well is added with a reaction mixture containing 200 uM Amplex Red reagent prepared from 50 mM sodium phosphate buffer solution (pH 7.4), 1 mM benzylamine, and 1 U/mL HRP. Fluorescence intensity was measured at several time points during 1-2 hours using a microplate reader (Flexstation3, Molecular Devices) under the wavelength condition exciting at 544 nm and reading the emission at 590 nm. The inhibitory effect of the compounds was measured as a decrease (%) in the signal rate as compared to the control group without any inhibitor (only diluted DMSO). Data was fixed to a logistic model with four variables and IC50 value was calculated using GraphPad Prism program.

Assay [1] has as its target T2, recombinant human DAO (diamine oxidase) (Homo sapiens, UniProt P19801).
T2 construct: purchased R&D systems
T2 sequence (P19801 20-751): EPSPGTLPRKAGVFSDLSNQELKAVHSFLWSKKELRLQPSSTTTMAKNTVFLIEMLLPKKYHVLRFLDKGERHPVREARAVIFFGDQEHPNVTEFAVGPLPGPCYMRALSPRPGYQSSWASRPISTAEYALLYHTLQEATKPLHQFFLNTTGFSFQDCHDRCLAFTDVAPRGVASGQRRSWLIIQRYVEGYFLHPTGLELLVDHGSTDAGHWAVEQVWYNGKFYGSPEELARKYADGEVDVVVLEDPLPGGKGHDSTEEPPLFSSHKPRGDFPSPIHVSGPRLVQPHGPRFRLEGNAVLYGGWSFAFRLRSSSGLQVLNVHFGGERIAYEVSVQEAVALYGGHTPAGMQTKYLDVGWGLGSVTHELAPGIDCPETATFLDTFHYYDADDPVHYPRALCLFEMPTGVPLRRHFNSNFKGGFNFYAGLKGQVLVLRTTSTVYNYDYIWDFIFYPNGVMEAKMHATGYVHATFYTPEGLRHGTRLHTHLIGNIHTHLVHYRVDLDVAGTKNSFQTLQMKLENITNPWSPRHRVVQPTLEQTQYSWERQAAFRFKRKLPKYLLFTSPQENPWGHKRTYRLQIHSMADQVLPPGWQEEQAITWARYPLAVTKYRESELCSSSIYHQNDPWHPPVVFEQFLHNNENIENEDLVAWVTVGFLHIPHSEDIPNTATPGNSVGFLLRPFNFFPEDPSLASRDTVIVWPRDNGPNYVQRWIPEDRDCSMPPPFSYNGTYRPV
As to the kind of experiment: Activity on recombinant human DAO, Amplex Red method, 1 mM putrescine substrate. Conditions: recombinant human DAO, read-out: Inhibitory Activity (IC50, nM) DAO. The class given is biochemical. How it is done:
as §1
In addition, the compounds according to the present technology were evaluated in terms of activity on a recombinant human MAO-A (monoamine oxidase-A, Sigma-Aldrich) and a recombinant human MAO-B (monoamine oxidase-B, Sigma-Aldrich) by using as substrates, 0.5 mM tyramine and 1 mM benzylamine, respectively, with a method similar to the activity evaluation method for recombinant human VAP-1. The compounds according to the present technology were also evaluated in terms of activity on a recombinant human DAO (diamine oxidase, R&D systems) by using as a substrate 1 mM putrescine with a method similar to the activity evaluation method for recombinant human VAP-1.

[2] abbreviates: 1 mM putrescine, * = between 10 and 100 nM, ** = between 300 and 1000 nM.

With `NC/C(=C/F)Cn1ncn(-c2cccc(-c3cccc(-c4nnc[nH]4)c3)c2)c1=O` [Example 60, 2-[(2Z)-2-(aminomethyl)-3-fluoroprop-2-en-1-yl]-4-[3′-(4H-1,2,4-triazol-3-yl)biphenyl-3-yl]-2,4-dihydro-3H-1,2,4-triazol-3-one], the half-inhibitory concentration (IC50) (commonly the concentration that gives 50% inhibition) was 1.3 nM at recombinant human VAP-1 (30 min preincubation at 37° C.) and below 100 nM in assay [1] (setting [2]).

`CS(=O)(=O)c1ccc(-c2cccc(-n3cnn(C/C(=C\F)CN)c3=O)c2)cc1` [Example 53, 2-[(2Z)-2-(aminomethyl)-3-fluoroprop-2-en-1-yl]-4-[4′-(methylsulfonyl)biphenyl-3-yl]-2,4-dihydro-3H-1,2,4-triazol-3-one hydrochloride]: the IC50 is 2.5 nM at recombinant human VAP-1 (30 min preincubation at 37° C.) and below 30 nM in assay [1] (setting [2]).

Turning to `Cc1cc(-c2ccc(-c3nnc[nH]3)cc2)cnc1-n1cnn(C/C(=C\F)CN)c1=O` [Example 135, 2-[(2Z)-2-(aminomethyl)-3-fluoroprop-2-en-1-yl]-4-{3-methyl-5-[4-(4H-1,2,4-triazol-3-yl)phenyl]pyridin-2-yl}-2,4-dihydro-3H-1,2,4-triazol-3-one], the IC50 at recombinant human VAP-1 (30 min preincubation at 37° C.) came to 3.2 nM; in assay [1] (setting [2]), 520 nM.

As for `Cc1cc(-c2ccc(S(C)(=O)=O)cc2)ncc1-n1cnn(C/C(=C/F)CN)c1=O` [Example 119, 2-[(2E)-2-(aminomethyl)-3-fluoroprop-2-en-1-yl]-4-{4-methyl-6-[4-(methylsulfonyl)phenyl]pyridin-3-yl}-2,4-dihydro-3H-1,2,4-triazol-3-one], the IC50 is 0.94 nM at recombinant human VAP-1 (30 min preincubation at 37° C.) and below 100 nM in assay [1] (setting [2]).

As to `NC/C(=C\F)Cn1ncn(-c2ncc(-c3ccc4c(c3)NC(=O)C4)s2)c1=O` [Example 233, 6-(2-{1-[(2E)-2-(aminomethyl)-3-fluoroprop-2-en-1-yl]-5-oxo-1,5-dihydro-4H-1,2,4-triazol-4-yl}-1,3-thiazol-5-yl)-1,3-dihydro-2H-indol-2-one], the results for the IC50 (at recombinant human VAP-1; in assay [1] (1 mM putrescine substrate)) were 1.7 nM and 1.2 nM, respectively.

Take `Cc1cc(N2CCNCC2)cnc1-n1cnn(C/C(=C/F)CN)c1=O` [Example 131, 2-[(2E)-2-(aminomethyl)-3-fluoroprop-2-en-1-yl]-4-[3-methyl-5-(piperazin-1-yl)pyridin-2-yl]-2,4-dihydro-3H-1,2,4-triazol-3-one]: the IC50 at recombinant human VAP-1 (30 min preincubation at 37° C.) came to 8.2 nM; in assay [1] (setting [2]) it was 4200 nM.

In the case of `Cc1c(-c2ccc3nonc3c2)cccc1-n1cnn(C/C(=C/F)CN)c1=O` [Example 113, 2-[(2E)-2-(aminomethyl)-3-fluoroprop-2-en-1-yl]-4-[3-(2,1,3-benzooxadiazol-5-yl)-2-methylphenyl]-2,4-dihydro-3H-1,2,4-triazol-3-one], the IC50 on recombinant human VAP-1 (30 min preincubation at 37° C.) was 2.3 nM; in assay [1] (setting [2]), below 1000 nM.

For `NC/C(=C\F)Cn1ncn(-c2ncc(-c3cccc(-c4nnn[nH]4)c3)s2)c1=O` [Example 230, 2-[(2E)-2-(aminomethyl)-3-fluoroprop-2-en-1-yl]-4-{5-[3-(1H-tetrazol-5-yl)phenyl]-1,3-thiazol-2-yl}-2,4-dihydro-3H-1,2,4-triazol-3-one], the IC50 at recombinant human VAP-1 is 0.53 nM; in assay [1] (1 mM putrescine substrate), 2.7 nM.

For the molecule `CC(=O)Nc1cc(-c2cnc(-n3cnn(C/C(=C/F)CN)c3=O)s2)ccn1` [Example 231, N-[4-(2-{1-[(2E)-2-(aminomethyl)-3-fluoroprop-2-en-1-yl]-5-oxo-1,5-dihydro-4H-1,2,4-triazol-4-yl}-1,3-thiazol-5-yl)pyridin-2-yl]acetamide], the IC50 on recombinant human VAP-1 was found to be 0.94 nM; in assay [1] (1 mM putrescine substrate) it was 0.086 nM.

For `Cc1ncc(-c2cccc(-n3cnn(C/C(=C/F)CN)c3=O)c2)cn1` [Example 91, 2-[(2E)-2-(aminomethyl)-3-fluoroprop-2-en-1-yl]-4-[3-(2-methylpyrimidin-5-yl)phenyl]-2,4-dihydro-3H-1,2,4-triazol-3-one hydrochloride], the IC50 on recombinant human VAP-1 (30 min preincubation at 37° C.) came out at 1.5 nM; in assay [1] (setting [2]) it was 13 nM.
